The assay has as its target APH(9)-Ia (Legionella pneumophila, UniProt O06916). In words: biochemical.

Structures are written as SMILES.

Chain of APH(9)-Ia (O06916 1-331): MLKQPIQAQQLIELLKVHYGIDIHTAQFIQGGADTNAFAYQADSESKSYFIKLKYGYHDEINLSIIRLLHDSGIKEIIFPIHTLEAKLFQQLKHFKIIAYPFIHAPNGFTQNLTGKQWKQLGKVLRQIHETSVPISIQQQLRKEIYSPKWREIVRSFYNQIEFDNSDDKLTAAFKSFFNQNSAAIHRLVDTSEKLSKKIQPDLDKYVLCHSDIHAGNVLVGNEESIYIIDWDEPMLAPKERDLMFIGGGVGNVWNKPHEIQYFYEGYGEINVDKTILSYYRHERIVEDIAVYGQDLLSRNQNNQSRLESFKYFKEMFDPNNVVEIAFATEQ

In general, Ki refers to the equilibrium dissociation constant of an inhibitor or competing ligand from its target. A high value points to weaker binding. The compound `NCCNS(=O)(=O)c1ccc(Cl)c2ccncc12` [CKI-7, N-(2-aminoethyl)-5-chloro-isoquinoline-8-sulfonamide] returned a Ki of 159 ± 11 µM.

The values above are taken from publication PMC3090406, “Crystal Structures of Two Aminoglycoside Kinases Bound with a Eukaryotic Protein Kinase Inhibitor” (PLoS ONE, 2011).
